US10131652B2, “Pyrimidinyloxy benzene derivatives as herbicides” (E. I. DU PONT DE NEMOURS AND COMPANY, priority 2014, dated 2018)

Assays:
Assay type in all cases: in vivo
[1] = test system: barnyardgrass (Echinochloa crus-galli); test: Test C flooded paddy test plant response; details: Flood, 250 g ai/ha; scale of 0 to 100 where 0 is no effect and 100 is complete control; 13 to 15 days
Procedure: (§1) Plant species in the flooded paddy test selected from rice (Oryza sativa), small-flower umbrella sedge (Cyperus difformis), ducksalad (Heteranthera limosa), and bamyardgrass (Echinochloa crus-galli) were grown to the 2-leaf stage for testing. At time of treatment, test pots were flooded to 3 cm above the soil surface, treated by application of test compounds directly to the paddy water, and then maintained at that water depth for the duration of the test. Treated plants and controls were maintained in a greenhouse for 13 to 15 days, after which time all species were compared to controls and visually evaluated. Plant response ratings, summarized in Table C, are based on a scale of 0 to 100 where 0 is no effect and 100 is complete control. A dash (-) response means no test result.

[2] = test system: ducksalad (Heteranthera limosa); test: Test C flooded paddy test plant response; details: Flood, 250 g ai/ha; scale of 0 to 100 where 0 is no effect and 100 is complete control; 13 to 15 days
Procedure: as §1

rice (Oryza sativa) = test: Test C flooded paddy test plant response; details: Flood, 250 g ai/ha; scale of 0 to 100 where 0 is no effect and 100 is complete control; 13 to 15 days
Procedure: as §1

[3] = test system: small-flower umbrella sedge (Cyperus difformis); test: Test C flooded paddy test plant response; details: Flood, 250 g ai/ha; scale of 0 to 100 where 0 is no effect and 100 is complete control; 13 to 15 days
Procedure: as §1

corn (Zea mays) = test: Test B pre-/postemergence plant response
Text: (§2) Seeds of plant species selected from bamyardgrass (Echinochloa crus-galli), kochia (Kochia scoparia), ragweed (common ragweed, Ambrosia elatior), Italian ryegrass (Lolium multiflorum), large (Lg) crabgrass (Digitaria sanguinalis), giant foxtail (Setaria faberii), momingglory (Ipomoea spp.), pigweed (Amaranthus retroflexus), velvetleaf (Abutilon theophrasti), wheat (Triticum aestivum), and corn (Zea mays) were planted into a blend of loam soil and sand and treated preemergence with a directed soil spray using test chemicals formulated in a non-phytotoxic solvent mixture which included a surfactant. At the same time, plants selected from these crop and weed species and also blackgrass (Alopecurus myosuroides), and galium (catchweed bedstraw, Galium aparine) were planted in pots containing the same blend of loam soil and sand and treated with postemergence applications of test chemicals formulated in the same manner. Plants ranged in height from 2 to 10 cm and were in the one- to two-leaf stage for the postemergence treatment. Treated plants and untreated controls were maintained in a greenhouse for approximately 10 days, after which time all treated plants were compared to untreated controls and visually evaluated for injury. Plant response ratings, summarized in Table B, are based on a 0 to 100 scale where 0 is no effect and 100 is complete control. A dash (-) response means no test result.

[4] = test system: ragweed (common ragweed, Ambrosia elatior); test: Test B pre-/postemergence plant response
Text: as §2

[5] = test system: giant foxtail (Setaria faberii); test: Test B pre-/postemergence plant response
Text: as §2

[6] = test system: barnyardgrass (Echinochloa crus-galli); test: Test B pre-/postemergence plant response
Text: as §2

[7] = test system: wheat (Triticum aestivum); test: Test B pre-/postemergence plant response
Text: as §2

kochia (Kochia scoparia) = test: Test B pre-/postemergence plant response
Text: as §2

[8] = test system: Italian ryegrass (Lolium multiflorum); test: Test B pre-/postemergence plant response
Text: as §2

[9] = test system: pigweed (Amaranthus retroflexus); test: Test B pre-/postemergence plant response
Text: as §2

[10] = test system: galium (catchweed bedstraw, Galium aparine); test: Test B postemergence plant response
Summary of the method: (§3)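 Visual injury ratings, 0 = no effect to 100 = complete control, versus untreated controls approximately 10 days after postemergence spraying in greenhouse. Plants were at one- to two-leaf stage, 2 to 10 cm tall, in loam soil/sand blend; a dash denotes no result.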

[11] = test system: blackgrass (Alopecurus myosuroides); test: Test B postemergence plant response
Summary of the method: as §3

[12] = 31 g ai/ha, Postemergence, 0 to 100 scale, 0 no effect, 100 complete control
[13] = 125 g ai/ha, postemergence, 0 to 100 scale, 0 no effect, 100 complete control
[14] = 31 g ai/ha, Preemergence, 0 to 100 scale where 0 is no effect and 100 is complete control
[15] = Preemergence, 125 g ai/ha, 0 to 100 scale (0 no effect, 100 complete control)
[16] = Postemergence, 31 g ai/ha, 0 to 100 scale (0 no effect, 100 complete control)
[17] = Preemergence, 125 g ai/ha, 0 to 100 scale where 0 is no effect and 100 is complete control

Row | SMILES | Barnyardgrass plant response rating [1] | Ducksalad plant response rating [2] | Rice plant response rating (rice (Oryza sativa)) | Sedge, Umbrella plant response rating [3] | Plant response rating, Corn (corn (Zea mays); [13]) | Plant response rating, Ragweed [4, 14] | Plant response rating, Ragweed [4, 13] | Plant response rating, Foxtail, Giant [5, 14] | Plant response rating, Foxtail, Giant [5, 13] | Plant response rating, Barnyardgrass [6, 14] | Plant response rating, Barnyardgrass [6, 13] | Plant response rating, Wheat [7, 13] | Plant response rating, Kochia (kochia (Kochia scoparia); [14]) | Plant response rating, Kochia (kochia (Kochia scoparia); [13]) | Plant response rating, Ryegrass, Italian [8, 14] | Plant response rating, Ryegrass, Italian [8, 13] | Plant response rating, Pigweed [9, 14] | Plant response rating, Pigweed [9, 13] | Plant response rating, Galium [10, 13] | Plant response rating, Blackgrass [11, 13] | also measured
1 | FC(F)c1cc(-c2ccccc2Oc2ncc(Cl)cn2)co1 [Compound 141] | 0 | 30 | 0 | 0 | 30 | 0 | 0 | 0 | 0 | 0 | 0 | 0 | 0 | 0 | 0 | 0 | 0 | 20 | 0 | 0 | Plant response rating, Corn (corn (Zea mays); [12]): 0; Ragweed plant response rating [4, 15]: 0; Plant response rating, Foxtail, Giant [5, 12]: 0; Foxtail, Giant plant response rating [5, 15]: 0; Plant response rating, Barnyardgrass [6, 12]: 0; Barnyardgrass plant response rating [6, 15]: 0; Kochia plant response rating (kochia (Kochia scoparia); [15]): 0; Ryegrass, Italian plant response rating [8, 15]: 0; Pigweed plant response rating [9, 15]: 0; Plant response rating, Blackgrass [11, 12]: 0
2 | Clc1cnc(Oc2ccccc2-c2cc(Cl)cnn2)nc1 [Compound 189] | 0 | 0 | 0 | 0 | 0 | 0 | 0 | 0 | 0 | 0 | 0 | 0 | 0 | 0 | 0 | 0 | 0 | 0 | 0 | 0 | Plant response rating, Corn (corn (Zea mays); [16]): 0; Plant response rating, Ragweed [4, 16]: 0; Ragweed plant response rating [4, 15]: 0; Plant response rating, Foxtail, Giant [5, 16]: 0; Foxtail, Giant plant response rating [5, 15]: 0; Plant response rating, Barnyardgrass [6, 16]: 0; Barnyardgrass plant response rating [6, 15]: 0; Plant response rating, Wheat [7, 16]: 0; Plant response rating, Kochia (kochia (Kochia scoparia); [16]): 0; Kochia plant response rating (kochia (Kochia scoparia); [15]): 0; Plant response rating, Ryegrass, Italian [8, 16]: 0; Ryegrass, Italian plant response rating [8, 15]: 0; Plant response rating, Pigweed [9, 16]: 0; Pigweed plant response rating [9, 15]: 0; Plant response rating, Galium [10, 16]: 0; Plant response rating, Blackgrass [11, 16]: 0
3 | COc1cccc(Oc2ncc(Cl)cn2)c1-c1cc(C(F)F)on1 [Compound 109] | 30 | 85 | 35 | 80 | 60 | 20 | 90 | 80 | 90 | 40 | 90 | 10 | 0 | 30 | 0 | 50 | 90 | 100 | 100 | 90 | Plant response rating, Corn (corn (Zea mays); [12]): 10; Plant response rating, Ragweed [4, 12]: 60; Plant response rating, Ragweed [4, 17]: 70; Plant response rating, Foxtail, Giant [5, 12]: 60; Plant response rating, Foxtail, Giant [5, 17]: 100; Plant response rating, Barnyardgrass [6, 12]: 60; Plant response rating, Barnyardgrass [6, 17]: 100; Plant response rating, Wheat [7, 12]: 0; Plant response rating, Kochia (kochia (Kochia scoparia); [12]): 0; Plant response rating, Kochia (kochia (Kochia scoparia); [17]): 30; Plant response rating, Ryegrass, Italian [8, 12]: 10; Plant response rating, Ryegrass, Italian [8, 17]: 10; Plant response rating, Pigweed [9, 12]: 80; Plant response rating, Pigweed [9, 17]: 100; Plant response rating, Galium [10, 12]: 50; Plant response rating, Blackgrass [11, 12]: 50
4 | Brc1cnc(Oc2ccccc2-c2ccno2)nc1 [Compound 155] | 0 | 0 | 0 | 0 | 0 | 0 | 0 | 0 | 0 | 0 | 0 | 0 | 0 | 0 | 0 | 0 | 0 | 0 | 0 | 0 | Plant response rating, Corn (corn (Zea mays); [16]): 0; Plant response rating, Ragweed [4, 16]: 0; Ragweed plant response rating [4, 15]: 0; Plant response rating, Foxtail, Giant [5, 16]: 0; Foxtail, Giant plant response rating [5, 15]: 0; Plant response rating, Barnyardgrass [6, 16]: 0; Barnyardgrass plant response rating [6, 15]: 0; Plant response rating, Wheat [7, 16]: 0; Plant response rating, Kochia (kochia (Kochia scoparia); [16]): 0; Kochia plant response rating (kochia (Kochia scoparia); [15]): 0; Plant response rating, Ryegrass, Italian [8, 16]: 0; Ryegrass, Italian plant response rating [8, 15]: 0; Plant response rating, Pigweed [9, 16]: 0; Pigweed plant response rating [9, 15]: 0; Plant response rating, Galium [10, 16]: 0; Plant response rating, Blackgrass [11, 16]: 0
